# Test results from patent publication US10227331B2 (priority 2015, dated 2019).
# Tests used:
# NDM-1 = NDM-1 (Klebsiella pneumoniae, UniProt C7C422); assay: biochemical; format: biochemical; details: CCF2-FA substrate, 2 hours at 25° C; read-out: NDM-1 IC50
# Procedure, shortened: (§1)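 Test compound, enzyme and the FRET cephalosporin substrate CCF2-FA are incubated together for 2 hours at 25° C. Cleavage is followed by fluorescence, and IC50 values are derived from semi-logarithmic inhibition curves fitted with a 4-parameter model.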
# IMP-1 = IMP-1 (Serratia marcescens, UniProt P52699); assay: biochemical; format: biochemical; details: CCF2-FA substrate, 2 hours at 25° C; read-out: IMP-1 IC50
# Procedure, shortened: as §1
# [1] = system: P. aeruginosa expressing IMP-1, efflux+ (MB9798); format: cell-based, Pseudomonas aeruginosa; details: for P. aeruginosa expressing IMP-1, efflux+ (MB9798) MITC95: imipenem at 2 μg/mL, in the presence of a class A, C, D serine β-lactamase inhibitor closely related to relebactam; for Efflux ratio: ratio MITC95 PA_9798/MITC95 PA_9799
# Excerpt: (§2) The strain background is Pseudomonas aeruginosa PAO1.
# VIM-1 = VIM-1 (Pseudomonas aeruginosa (strain ATCC 15692 / DSM 22644 / CIP 104116 / JCM 14847 / LMG 12228 / 1C / PRS 101 / PAO1), UniProt A0A0F7KYQ8); assay: biochemical; details: CCF2-FA substrate, 2 hours at 25° C
# Procedure, shortened: as §1
# [2] = system: P. aeruginosa expressing IMP-1, efflux− (MB9799); assay: Efflux: concentration of MBL inhibitor which restores susceptibility to imipenem; format: cell-based, Pseudomonas aeruginosa; details: imipenem at 2 μg/mL, in the presence of a class A, C, D serine β-lactamase inhibitor closely related to relebactam
# Excerpt: as §2
# [3] = system: Escherichia coli expressing NDM-1 (CLB30005, CLB30016); format: cell-based; details: with imipenem 1 μg/ml; 95% inhibition of bacterial growth
# Procedure, shortened: (§3)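 Clinical strains grown overnight on blood agar, then diluted 1:100 in 1.1× CAMHB and exposed to test compound with imipenem at 1 μg/ml. Incubation was 22–24 h at 35° C; growth was read by absorbance to find the compound concentration restoring imipenem susceptibility.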
# [4] = system: Serratia marcescens expressing IMP-1 (CL5741); format: cell-based; details: with imipenem 1 μg/ml; 95% inhibition of bacterial growth
# Procedure, shortened: as §3
# [5] = system: Klebsiella pneumoniae expressing VIM-1 (IHMA599644); format: cell-based; details: with imipenem 1 μg/ml; 95% inhibition of bacterial growth
# Procedure, shortened: as §3
# Sequence of IMP-1 (P52699 whole entry, looked up, species assumed): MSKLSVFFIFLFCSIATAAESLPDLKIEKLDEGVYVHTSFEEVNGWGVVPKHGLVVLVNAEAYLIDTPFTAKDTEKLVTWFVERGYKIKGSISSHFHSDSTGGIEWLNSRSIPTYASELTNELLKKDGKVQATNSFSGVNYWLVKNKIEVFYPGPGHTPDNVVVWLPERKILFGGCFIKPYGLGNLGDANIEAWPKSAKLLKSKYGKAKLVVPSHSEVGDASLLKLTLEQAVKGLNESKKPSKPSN
# Sequence of NDM-1 (C7C422 whole entry, looked up, species assumed): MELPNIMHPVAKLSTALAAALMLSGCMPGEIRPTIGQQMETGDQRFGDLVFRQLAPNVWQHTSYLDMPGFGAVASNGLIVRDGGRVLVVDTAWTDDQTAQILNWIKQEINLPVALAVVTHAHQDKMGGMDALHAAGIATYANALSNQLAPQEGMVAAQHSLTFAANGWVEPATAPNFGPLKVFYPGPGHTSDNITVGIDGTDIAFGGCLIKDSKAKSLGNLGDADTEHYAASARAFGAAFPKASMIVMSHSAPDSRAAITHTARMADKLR
SMILES,IC50 (NDM-1),IC50 (IMP-1),"P. aeruginosa expressing IMP-1, efflux+ (MB9798) MITC95 [1]",Efflux ratio [1],IC50 (VIM-1),"P. aeruginosa expressing IMP-1, efflux− (MB9799) MITC95 [2]",Escherichia coli expressing NDM-1 (CLB30016) MITC95 [3],Serratia marcescens expressing IMP-1 (CL5741) MITC95 [4],Klebsiella pneumoniae expressing VIM-1 (IHMA599644) MITC95 [5]
"NS(=O)(=O)c1c(S(=O)(=O)C2CNC2)ccc(-c2cnc3ccccc3c2)c1-c1nnn[nH]1.O=C(O)C(F)(F)F [Example 98, 3-((4-(quinolin-3-yl)-2-sulfamoyl-3-(1H-tetrazol-5-yl)phenyl)sulfonyl)azetidin-1-ium 2,2,2-trifluoroacetate]",0.4 nM,1.97 nM,25 µM,15.99,0.241 nM,1.563 µM,3.125 µM,3.125 µM,3.125 µM
"Cc1cc(-c2ccc(S(=O)(=O)C3CNC3)c(S(N)(=O)=O)c2-c2nnn[nH]2)cnc1C#N.O=C(O)C(F)(F)F [Example 99, 3-((4-(6-cyano-5-methylpyridin-3-yl)-2-sulfamoyl-3-(1H-tetrazol-5-yl)phenyl)sulfonyl)azetidin-1-ium 2,2,2-trifluoroacetate]",3.94 nM,13.7 nM,200 µM,127.96,0.535 nM,1.563 µM,6.25 µM,12.5 µM,6.25 µM
"NS(=O)(=O)c1c(S(=O)(=O)C2CNC2)ccc(-c2cccc3[nH]ncc23)c1-c1nnn[nH]1.O=C(O)C(F)(F)F [Example 100, 3-((4-(1H-indazol-4-yl)-2-sulfamoyl-3-(1H-tetrazol-5-yl)phenyl)sulfonyl)azetidin-1-ium 2,2,2-trifluoroacetate]",0.358 nM,1.61 nM,6.25 µM,4.00,0.331 nM,1.563 µM,6.25 µM,3.125 µM,3.125 µM
"NS(=O)(=O)c1c(S(=O)(=O)C2CNC2)ccc(-c2cnc3ccoc3c2)c1-c1nnn[nH]1.O=C(O)C(F)(F)F [Example 101, 3-((4-(furo[3,2-b]pyridin-6-yl)-2-sulfamoyl-3-(1H-tetrazol-5-yl)phenyl)sulfonyl)azetidin-1-ium 2,2,2-trifluoroacetate]",0.905 nM,1.48 nM,12.5 µM,8.00,0.399 nM,1.563 µM,3.125 µM,3.125 µM,6.25 µM
"NS(=O)(=O)c1c(S(=O)(=O)C2CNC2)ccc(-c2cccc3ccnn23)c1-c1nnn[nH]1.O=C(O)C(F)(F)F [Example 102, 3-((4-(pyrazolo[1,5-a]pyridin-7-yl)-2-sulfamoyl-3-(1H-tetrazol-5-yl)phenyl)sulfonyl)azetidin-1-ium 2,2,2-trifluoroacetate]",0.407 nM,0.909 nM,3.125 µM,2.00,0.457 nM,1.563 µM,3.125 µM,3.125 µM,3.125 µM
"Cn1cnc2cc(-c3ccc(S(=O)(=O)C4CNC4)c(S(N)(=O)=O)c3-c3nnn[nH]3)cnc21.O=C(O)C(F)(F)F [Example 103, 3-((4-(3-methyl-3H-imidazo[4,5-b]pyridin-6-yl)-2-sulfamoyl-3-(1H-tetrazol-5-yl)phenyl)sulfonyl)azetidin-1-ium 2,2,2-trifluoroacetate]",0.954 nM,1.85 nM,12.5 µM,8.00,0.581 nM,1.563 µM,12.5 µM,3.125 µM,6.25 µM
"NS(=O)(=O)c1c(S(=O)(=O)C2CNC2)ccc(-c2ccc3ncnn3c2)c1-c1nnn[nH]1.O=C(O)C(F)(F)F [Example 104, 3-((4-([1,2,4]triazolo[1,5-a]pyridin-6-yl)-2-sulfamoyl-3-(1H-tetrazol-5-yl)phenyl)sulfonyl)azetidin-1-ium 2,2,2-trifluoroacetate]",2.09 nM,3.53 nM,12.5 µM,8.00,0.699 nM,1.563 µM,3.125 µM,6.25 µM,3.125 µM
"NS(=O)(=O)c1c(S(=O)(=O)C2CNC2)ccc(-c2cncnc2)c1-c1nnn[nH]1.O=C(O)C(F)(F)F [Example 110, 3-((4-(pyrimidin-5-yl)-2-sulfamoyl-3-(1H-tetrazol-5-yl)phenyl)sulfonyl)azetidin-1-ium 2,2,2-trifluoroacetate]",4.79 nM,13.2 nM,25 µM,15.99,3.47 nM,1.563 µM,1.563 µM,1.563 µM,3.125 µM
"Nc1cncc(-c2ccc(S(=O)(=O)C3CNC3)c(S(N)(=O)=O)c2-c2nnn[nH]2)c1.O=C(O)C(F)(F)F [Example 112, 3-((4-(5-aminopyridin-3-yl)-2-sulfamoyl-3-(1H-tetrazol-5-yl)phenyl)sulfonyl)azetidin-1-ium 2,2,2-trifluoroacetate]",2.51 nM,8.68 nM,12.5 µM,4.00,1.79 nM,3.125 µM,3.125 µM,3.125 µM,6.25 µM
"NS(=O)(=O)c1c(S(=O)(=O)C2CNC2)ccc(-c2cccc3c2CNC3=O)c1-c1nnn[nH]1.O=C(O)C(F)(F)F [Example 113, 3-((4-(1-oxoisoindolin-4-yl)-2-sulfamoyl-3-(1H-tetrazol-5-yl)phenyl)sulfonyl)azetidin-1-ium 2,2,2-trifluoroacetate]",0.137 nM,6.06 nM,12.5 µM,8.00,0.164 nM,1.563 µM,1.563 µM,3.125 µM,6.25 µM
"NS(=O)(=O)c1c(S(=O)(=O)C2CNC2)ccc(-c2ccc3scnc3c2)c1-c1nnn[nH]1.O=C(O)C(F)(F)F [Example 114, 3-((4-(benzo[d]thiazol-5-yl)-2-sulfamoyl-3-(1H-tetrazol-5-yl)phenyl)sulfonyl)azetidin-1-ium 2,2,2-trifluoroacetate]",0.15 nM,0.261 nM,6.25 µM,8.00,0.116 nM,0.7813 µM,0.3906 µM,0.7813 µM,1.563 µM
"NS(=O)(=O)c1c(S(=O)(=O)C2CNC2)ccc(-c2ccc3ncccc3c2)c1-c1nnn[nH]1.O=C(O)C(F)(F)F [Example 115, 3-((4-(quinolin-6-yl)-2-sulfamoyl-3-(1H-tetrazol-5-yl)phenyl)sulfonyl)azetidin-1-ium 2,2,2-trifluoroacetate]",0.236 nM,0.793 nM,12.5 µM,8.00,0.276 nM,1.563 µM,3.125 µM,3.125 µM,3.125 µM
